Data taken from patent US12617797B2, “Substituted pyrazolo [1,5-a]pyrimidines having multimodal activity against pain” (ESTEVE PHARMACEUTICALS, S.A., priority 2020, dated 2026).

How the values were obtained:
[1] = molecular target: Human α2δ-1 subunit of Cav2.2 calcium channel (Homo sapiens, UniProt P54289); assay: Human α2δ-1 subunit of Cav2.2 calcium channel assay ([3H]-gabapentin binding); details: binding to the α2δ-1 subunit of voltage-gated calcium channels expressed as Ki; + also covers inhibition between 1% and 50%
Method: Biological Activity Pharmacological Study Human α2δ-1 Subunit of Cav2.2 Calcium Channel Assay
Human α2δ-1 enriched membranes (2.5 μg) were incubated with 15 nM of radiolabeled [^3H]-Gabapentin in assay buffer containing Hepes-KOH 10 mM, pH 7.4. NSB (non specific binding) was measured by adding 10 μM pregabalin. The binding of the test compound was measured at either one concentration (% inhibition at 1 or 10 μM) or five different concentrations to determine affinity values (Ki). After 60 min incubation at 27° C., binding reaction was terminated by filtering through Multiscreen GF/C (Millipore) presoaked in 0.5% polyethyleneimine in Vacuum Manifold Station, followed by 3 washes with ice-cold filtration buffer containing 50 mM Tris-HCl, pH 7.4. Filter plates were dried at 60° C. for 1 h and 30 μL of scintillation cocktail were added to each well before radioactivity reading. Readings were performed in a Trilux 1450 Microbeta radioactive counter (Perkin Elmer).

Human σ1 receptor = molecular target: T1, Human σ1 receptor (Homo sapiens, UniProt Q99720); assay: Human σ1 receptor radioligand assay ([3H](+)-pentazocine binding, transfected HEK-293 membranes); details: binding to σ1 receptor expressed as Ki; + also covers inhibition between 1% and 50%; read-out: σ-1 binding
T1 construct: expressed in transfected cells; host or cells: HEK-293
Method: Human σ1 Receptor Radioligand Assay
Transfected HEK-293 membranes (7 μg) were incubated with 5 nM of [^3H](+)-pentazocine in assay buffer containing Tris-HCl 50 mM at pH 8. NBS (non-specific binding) was measured by adding 10 μM haloperidol. The binding of the test compound was measured at either one concentration (% inhibition at 1 or 10 μM) or five different concentrations to determine affinity values (Ki). Plates were incubated at 37° C. for 120 minutes. After the incubation period, the reaction mix was then transferred to MultiScreen HTS, FC plates (Millipore), filtered and plates were washed 3 times with ice-cold 10 mM Tris-HCL (pH7.4). Filters were dried and counted at approximately 40% efficiency in a MicroBeta scintillation counter (Perkin-Elmer) using EcoScint liquid scintillation cocktail.

T1 sequence (Q99720 whole entry): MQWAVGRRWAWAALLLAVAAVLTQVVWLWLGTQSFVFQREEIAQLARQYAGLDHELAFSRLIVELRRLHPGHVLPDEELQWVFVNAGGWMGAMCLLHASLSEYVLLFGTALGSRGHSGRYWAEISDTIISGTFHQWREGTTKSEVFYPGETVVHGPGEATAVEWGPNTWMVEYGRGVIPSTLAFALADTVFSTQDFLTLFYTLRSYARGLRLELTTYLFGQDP
Chain of Human α2δ-1 subunit of Cav2.2 calcium channel (P54289 25-1103): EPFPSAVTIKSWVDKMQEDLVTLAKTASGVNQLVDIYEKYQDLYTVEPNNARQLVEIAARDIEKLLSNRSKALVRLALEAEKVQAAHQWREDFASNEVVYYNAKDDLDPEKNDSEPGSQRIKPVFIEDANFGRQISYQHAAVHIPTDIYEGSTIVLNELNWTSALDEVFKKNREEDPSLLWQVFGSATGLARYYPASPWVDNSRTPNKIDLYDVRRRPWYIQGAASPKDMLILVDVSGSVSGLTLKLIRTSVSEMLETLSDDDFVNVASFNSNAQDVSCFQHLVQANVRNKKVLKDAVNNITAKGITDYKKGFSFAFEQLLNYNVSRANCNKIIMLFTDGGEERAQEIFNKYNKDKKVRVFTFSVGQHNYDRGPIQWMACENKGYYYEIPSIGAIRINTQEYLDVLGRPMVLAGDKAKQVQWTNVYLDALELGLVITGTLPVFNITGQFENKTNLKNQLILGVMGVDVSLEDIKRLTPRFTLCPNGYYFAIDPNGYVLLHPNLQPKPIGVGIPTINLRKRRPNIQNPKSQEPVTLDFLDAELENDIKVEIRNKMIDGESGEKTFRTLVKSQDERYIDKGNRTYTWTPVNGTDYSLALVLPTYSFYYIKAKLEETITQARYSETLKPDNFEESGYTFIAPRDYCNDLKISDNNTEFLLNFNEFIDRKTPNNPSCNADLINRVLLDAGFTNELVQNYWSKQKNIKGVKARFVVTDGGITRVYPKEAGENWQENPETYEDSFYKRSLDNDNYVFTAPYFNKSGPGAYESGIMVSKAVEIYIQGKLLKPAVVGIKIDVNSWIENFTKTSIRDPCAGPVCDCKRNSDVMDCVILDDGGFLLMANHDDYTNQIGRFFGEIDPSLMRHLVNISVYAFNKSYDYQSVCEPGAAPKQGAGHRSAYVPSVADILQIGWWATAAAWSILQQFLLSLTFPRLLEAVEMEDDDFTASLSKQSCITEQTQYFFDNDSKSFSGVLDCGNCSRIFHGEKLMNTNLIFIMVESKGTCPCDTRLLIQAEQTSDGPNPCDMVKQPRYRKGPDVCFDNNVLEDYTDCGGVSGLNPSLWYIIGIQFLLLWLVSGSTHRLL

| SMILES | Ki [1] | Ki (Human σ1 receptor) |
| --- | --- | --- |
| Cc1nn2c(C3CCCN(Cc4ccc(Cl)cc4)C3)ccnc2c1CNCC1CCOC1 (racemic) [Example 201, (+/−)-1-(7-((R/S)-1-(4-Chlorobenzyl)piperidin-3-yl)-2-methylpyrazolo[1,5-a]pyrimidin-3-yl)-N—(((S/R)-tetrahydrofuran-3-yl)methyl)methanamine] | > 5 µM | < 500 nM |
| Cc1nn2c([C@@H]3CCCN(Cc4ccc(Cl)cc4)C3)ccnc2c1CNC[C@@H]1CCOC(C)(C)C1 (racemic) [Example 221, (+/−)-1-(7-((R/S)-1-(4-Chlorobenzyl)piperidin-3-yl)-2-methylpyrazolo[1,5-a]pyrimidin-3-yl)-N—(((R/S)-2,2-dimethyltetrahydro-2H-pyran-4-yl)methyl)methanamine] | < 0.5 µM | < 500 nM |
| Cc1nn2c([C@@H]3CCCN(Cc4ccc(Cl)cc4)C3)ccnc2c1CN[C@H](C)C1CCOCC1 (racemic) [Example 224, (+/−)-(R/S)—N-((7-((R/S)-1-(4-Chlorobenzyl)piperidin-3-yl)-2-methylpyrazolo[1,5-a]pyrimidin-3-yl)methyl)-1-(tetrahydro-2H-pyran-4-yl)ethan-1-amine] | 0.5 to 5 µM | < 500 nM |
| Brc1cc2nccc(C3CCCN(Cc4ccccc4)C3)n2n1 (stereo not shown) [Example 1, 7-(1-Benzylpiperidin-3-yl)-2-bromopyrazolo[1,5-a]pyrimidine] | 0.5 to 5 µM | 500 to 1000 nM |
| c1ccc(CN2CCCC(c3ccnc4ccnn34)C2)cc1 (stereo not shown) [Example 2, 7-(1-Benzylpiperidin-3-yl)pyrazolo[1,5-a]pyrimidine] | 0.5 to 5 µM | > 1000 nM |
| Cc1cc2nccc(C3CCCN(Cc4ccccc4)C3)n2n1 (stereo not shown) [Example 3, 7-(1-Benzylpiperidin-3-yl)-2-methylpyrazolo[1,5-a]pyrimidine] | 0.5 to 5 µM | 500 to 1000 nM |
| CCc1cc2nccc(C3CCCN(Cc4ccccc4)C3)n2n1 (stereo not shown) [Example 4, 7-(1-Benzylpiperidin-3-yl)-2-ethylpyrazolo[1,5-a]pyrimidine] | 0.5 to 5 µM | < 500 nM |
| Brc1cnn2c(C3CCCN(Cc4ccccc4)C3)ccnc12 (stereo not shown) [Example 5, 7-(1-Benzylpiperidin-3-yl)-3-bromopyrazolo[1,5-a]pyrimidine] | 0.5 to 5 µM | < 500 nM |
| Cc1cnc2c(Br)c(C)nn2c1C1CCCN(Cc2ccccc2)C1 (stereo not shown) [Example 6, 7-(1-Benzylpiperidin-3-yl)-3-bromo-2,6-dimethylpyrazolo[1,5-a]pyrimidine] | 0.5 to 5 µM | > 1000 nM |
| Cc1cnc2c(Br)cnn2c1C1CCCN(Cc2ccccc2)C1 (stereo not shown) [Example 7, 7-(1-Benzylpiperidin-3-yl)-3-bromo-6-methylpyrazolo[1,5-a]pyrimidine] | > 5 µM | > 1000 nM |
| CC(=O)Nc1c(C)nn2c(C3CCCN(Cc4ccccc4)C3)ccnc12 (stereo not shown) [Example 8, N-(7-(1-Benzylpiperidin-3-yl)-2-methylpyrazolo[1,5-a]pyrimidin-3-yl)acetamide] | > 5 µM | > 1000 nM |
| CC(=O)Nc1nn2c(C3CCCN(Cc4ccccc4)C3)ccnc2c1C (stereo not shown) [Example 9, N-(7-(1-Benzylpiperidin-3-yl)-3-methylpyrazolo[1,5-a]pyrimidin-2-yl)acetamide] | > 5 µM | > 1000 nM |
| Cc1nn2c(C3CCCN(Cc4ccccc4)C3)ccnc2c1Br (stereo not shown) [Example 10, 7-(1-Benzylpiperidin-3-yl)-3-bromo-2-methylpyrazolo[1,5-a]pyrimidine] | 0.5 to 5 µM | < 500 nM |
| CCc1nn2c(C3CCCN(Cc4ccccc4)C3)ccnc2c1Br (stereo not shown) [Example 11, 7-(1-Benzylpiperidin-3-yl)-3-bromo-2-ethylpyrazolo[1,5-a]pyrimidine] | 0.5 to 5 µM | < 500 nM |
| c1ccc(CN2CCCC(c3ccnc4cc(-c5ccccc5)nn34)C2)cc1 (stereo not shown) [Example 12, 7-(1-Benzylpiperidin-3-yl)-2-phenylpyrazolo[1,5-a]pyrimidine] | > 5 µM | 500 to 1000 nM |
| CCOc1ccc(-c2cc3nccc(C4CCCN(Cc5ccccc5)C4)n3n2)cc1 (stereo not shown) [Example 13, 7-(1-Benzylpiperidin-3-yl)-2-(4-ethoxyphenyl)pyrazolo[1,5-a]pyrimidine] | > 5 µM | > 1000 nM |
| Fc1ccccc1-c1cc2nccc(C3CCCN(Cc4ccccc4)C3)n2n1 (stereo not shown) [Example 14, 7-(1-Benzylpiperidin-3-yl)-2-(2-fluorophenyl)pyrazolo[1,5-a]pyrimidine] | 0.5 to 5 µM | 500 to 1000 nM |

| SMILES | Ki [1] | Ki (Human σ1 receptor) |
| --- | --- | --- |
| Clc1ccc(-c2cc3nccc(C4CCCN(Cc5ccccc5)C4)n3n2)cc1 (stereo not shown) [Example 15, 7-(1-Benzylpiperidin-3-yl)-2-(4-chlorophenyl)pyrazolo[1,5-a]pyrimidine] | > 5 µM | > 1000 nM |
| c1ccc(CN2CCCC(c3ccnc4cc(-c5ccncc5)nn34)C2)cc1 (stereo not shown) [Example 16, 7-(1-Benzylpiperidin-3-yl)-2-(pyridin-4-yl)pyrazolo[1,5-a]pyrimidine] | 0.5 to 5 µM | > 1000 nM |
| c1ccc(CN2CCCC(c3ccnc4cc(-c5cccnc5)nn34)C2)cc1 (stereo not shown) [Example 17, 7-(1-Benzylpiperidin-3-yl)-2-(pyridin-3-yl)pyrazolo[1,5-a]pyrimidine] | 0.5 to 5 µM | 500 to 1000 nM |
| Clc1cncc(Cl)c1-c1cc2nccc(C3CCCN(Cc4ccccc4)C3)n2n1 (stereo not shown) [Example 18, 7-(1-Benzylpiperidin-3-yl)-2-(3,5-dichloropyridin-4-yl)pyrazolo[1,5-a]pyrimidine] | 0.5 to 5 µM | 500 to 1000 nM |
| c1ccc(CN2CCCC(c3ccnc4cc(-c5cccs5)nn34)C2)cc1 (stereo not shown) [Example 19, 7-(1-Benzylpiperidin-3-yl)-2-(thiophen-2-yl)pyrazolo[1,5-a]pyrimidine] | 0.5 to 5 µM | > 1000 nM |
| c1ccc(CN2CCCC(c3ccnc4cc(-c5cnsc5)nn34)C2)cc1 (stereo not shown) [Example 20, 4-(7-(1-Benzylpiperidin-3-yl)pyrazolo[1,5-a]pyrimidin-2-yl)isothiazole] | 0.5 to 5 µM | > 1000 nM |
| Cn1cncc1-c1cc2nccc(C3CCCN(Cc4ccccc4)C3)n2n1 (stereo not shown) [Example 21, 7-(1-Benzylpiperidin-3-yl)-2-(1-methyl-1H-imidazol-5-yl)pyrazolo[1,5-a]pyrimidine] | 0.5 to 5 µM | > 1000 nM |
| CN(C)c1ccc(-c2cc3nccc(C4CCCN(Cc5ccccc5)C4)n3n2)cc1 (stereo not shown) [Example 22, 4-(7-(1-Benzylpiperidin-3-yl)pyrazolo[1,5-a]pyrimidin-2-yl)-N,N-dimethylaniline] | 0.5 to 5 µM | > 1000 nM |
| c1ccc(CN2CCCC(c3ccnc4cc(-c5cncnc5)nn34)C2)cc1 (stereo not shown) [Example 23, 7-(1-Benzylpiperidin-3-yl)-2-(pyrimidin-5-yl)pyrazolo[1,5-a]pyrimidine] | 0.5 to 5 µM | > 1000 nM |
| Nc1ccc(-c2cc3nccc(C4CCCN(Cc5ccccc5)C4)n3n2)cn1 (stereo not shown) [Example 24, 5-(7-(1-Benzylpiperidin-3-yl)pyrazolo[1,5-a]pyrimidin-2-yl)pyridin-2-amine] | 0.5 to 5 µM | > 1000 nM |
| Cn1cc(-c2cc3nccc(C4CCCN(Cc5ccccc5)C4)n3n2)cn1 (stereo not shown) [Example 25, 7-(1-Benzylpiperidin-3-yl)-2-(1-methyl-1H-pyrazol-4-yl)pyrazolo[1,5-a]pyrimidine] | > 5 µM | > 1000 nM |
| c1ccc(CN2CCCC(c3ccnc4cc(-c5ccccn5)nn34)C2)cc1 (stereo not shown) [Example 26, 7-(1-Benzylpiperidin-3-yl)-2-(pyridin-2-yl)pyrazolo[1,5-a]pyrimidine] | < 0.5 µM | > 1000 nM |
| COc1ncccc1-c1cc2nccc(C3CCCN(Cc4ccccc4)C3)n2n1 (stereo not shown) [Example 27, 7-(1-Benzylpiperidin-3-yl)-2-(2-methoxypyridin-3-yl)pyrazolo[1,5-a]pyrimidine] | 0.5 to 5 µM | 500 to 1000 nM |
| COc1ccc(-c2cc3nccc(C4CCCN(Cc5ccccc5)C4)n3n2)cn1 (stereo not shown) [Example 28, 7-(1-Benzylpiperidin-3-yl)-2-(6-methoxypyridin-3-yl)pyrazolo[1,5-a]pyrimidine] | 0.5 to 5 µM | > 1000 nM |
| COc1ccccc1-c1cc2nccc(C3CCCN(Cc4ccccc4)C3)n2n1 (stereo not shown) [Example 29, 7-(1-Benzylpiperidin-3-yl)-2-(2-methoxyphenyl)pyrazolo[1,5-a]pyrimidine] | 0.5 to 5 µM | > 1000 nM |
| COc1cccc(-c2cc3nccc(C4CCCN(Cc5ccccc5)C4)n3n2)n1 (stereo not shown) [Example 30, 7-(1-Benzylpiperidin-3-yl)-2-(6-methoxypyridin-2-yl)pyrazolo[1,5-a]pyrimidine] | > 5 µM | > 1000 nM |
| CC(=O)N1CCC(CNCc2c(Cl)nn3c([C@@H]4CCCN(Cc5ccccc5)C4)ccnc23)CC1 [Example 217, (R)-1-(4-((((7-(1-benzylpiperidin-3-yl)-2-chloropyrazolo[1,5-a]pyrimidin-3-yl)methyl)amino)methyl)piperidin-1-yl)ethan-1-one] | > 5 µM |  |
